Source: patent US11723908B2, “Quinazoline derivatives as antitumor agents” (SUZHOU ZANRONG PHARMA LIMITED, priority 2018, dated 2023)
Where two headings read alike, the source gives them in different places.

Experiments:
P-glycoprotein (Pgp) = P-glycoprotein (Pgp) (Homo sapiens (Human), UniProt P08183); test: MDCK-MDR1 Pgp assessment; format: in vitro ADME; conditions: for Pgp substrate status: conclusion from Table 3; for efflux ratio at 2 h, 1 μM: dog, MDCK-MDR1 cells, 37° C. for 2 hours, read-out: PgpER
Chain of P-glycoprotein (Pgp) (P08183 whole entry): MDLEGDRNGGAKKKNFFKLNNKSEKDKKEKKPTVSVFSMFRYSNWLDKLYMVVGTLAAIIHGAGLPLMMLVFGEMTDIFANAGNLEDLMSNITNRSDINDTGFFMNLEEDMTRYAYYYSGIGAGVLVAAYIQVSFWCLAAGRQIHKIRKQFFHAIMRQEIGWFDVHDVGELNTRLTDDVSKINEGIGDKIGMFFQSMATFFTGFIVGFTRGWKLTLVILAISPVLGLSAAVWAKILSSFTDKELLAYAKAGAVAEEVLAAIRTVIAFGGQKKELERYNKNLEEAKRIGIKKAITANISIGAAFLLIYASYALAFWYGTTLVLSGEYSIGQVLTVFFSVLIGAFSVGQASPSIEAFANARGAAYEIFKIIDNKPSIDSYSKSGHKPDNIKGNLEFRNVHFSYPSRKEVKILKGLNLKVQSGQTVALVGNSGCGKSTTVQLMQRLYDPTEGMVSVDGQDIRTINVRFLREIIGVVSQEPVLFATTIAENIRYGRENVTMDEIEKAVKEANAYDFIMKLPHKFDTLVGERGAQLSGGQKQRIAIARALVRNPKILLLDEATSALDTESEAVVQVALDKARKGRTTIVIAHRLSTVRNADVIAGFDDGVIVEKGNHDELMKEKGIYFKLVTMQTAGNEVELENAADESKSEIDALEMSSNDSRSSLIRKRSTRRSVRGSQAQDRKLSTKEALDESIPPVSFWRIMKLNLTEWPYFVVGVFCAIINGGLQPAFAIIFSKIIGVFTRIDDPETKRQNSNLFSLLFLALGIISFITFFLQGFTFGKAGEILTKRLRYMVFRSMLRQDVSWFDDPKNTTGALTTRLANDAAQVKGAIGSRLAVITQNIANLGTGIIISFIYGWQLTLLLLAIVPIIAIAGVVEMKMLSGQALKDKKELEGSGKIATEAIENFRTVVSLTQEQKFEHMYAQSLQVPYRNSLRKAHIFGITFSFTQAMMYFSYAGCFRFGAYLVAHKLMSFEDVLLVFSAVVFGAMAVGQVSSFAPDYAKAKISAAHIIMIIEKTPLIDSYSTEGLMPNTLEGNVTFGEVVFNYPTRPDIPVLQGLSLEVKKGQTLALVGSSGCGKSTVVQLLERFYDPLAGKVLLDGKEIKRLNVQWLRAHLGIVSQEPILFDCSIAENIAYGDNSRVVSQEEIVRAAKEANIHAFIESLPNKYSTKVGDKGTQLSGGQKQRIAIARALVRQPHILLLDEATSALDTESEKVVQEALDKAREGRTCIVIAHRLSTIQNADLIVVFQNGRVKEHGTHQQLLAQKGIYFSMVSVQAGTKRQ
Protocol: Assay c): MDCK-MDR1 Pgp Assessment
Efflux transport mediated by P-glycoprotein (Pgp) was assessed by MDCK-MDR1 cells. The final concentrations of test compounds and control compound were at 1 μM. The multi-well insert plate was incubated at 37° C. for 2 hours.

hERG channel = hERG channel (Homo sapiens (Human), UniProt Q12809); test: hERG inhibition, manual patch clamp in HEK 293 cells; format: cell-based; conditions: for IC50: HEK 293 cell line stably expressing hERG channel, manual patch clamp; for hERG liability: conclusion from Table 3
Protocol: Assay f): hERG Inhibition Inhibition of hERG channel was conducted in HEK 293 cell line stably expressing hERG channel by manual patch clamp.

HER2 = HER2 (Homo sapiens (Human), UniProt P04626); test: BT474 cellular assay (HER2 inhibition), phospho-HER2 ELISA; format: cell-based; conditions: inhibition of phosphor HER2, BT474 cells, 2 hours compound incubation
Chain of HER2 (P04626 23-1255): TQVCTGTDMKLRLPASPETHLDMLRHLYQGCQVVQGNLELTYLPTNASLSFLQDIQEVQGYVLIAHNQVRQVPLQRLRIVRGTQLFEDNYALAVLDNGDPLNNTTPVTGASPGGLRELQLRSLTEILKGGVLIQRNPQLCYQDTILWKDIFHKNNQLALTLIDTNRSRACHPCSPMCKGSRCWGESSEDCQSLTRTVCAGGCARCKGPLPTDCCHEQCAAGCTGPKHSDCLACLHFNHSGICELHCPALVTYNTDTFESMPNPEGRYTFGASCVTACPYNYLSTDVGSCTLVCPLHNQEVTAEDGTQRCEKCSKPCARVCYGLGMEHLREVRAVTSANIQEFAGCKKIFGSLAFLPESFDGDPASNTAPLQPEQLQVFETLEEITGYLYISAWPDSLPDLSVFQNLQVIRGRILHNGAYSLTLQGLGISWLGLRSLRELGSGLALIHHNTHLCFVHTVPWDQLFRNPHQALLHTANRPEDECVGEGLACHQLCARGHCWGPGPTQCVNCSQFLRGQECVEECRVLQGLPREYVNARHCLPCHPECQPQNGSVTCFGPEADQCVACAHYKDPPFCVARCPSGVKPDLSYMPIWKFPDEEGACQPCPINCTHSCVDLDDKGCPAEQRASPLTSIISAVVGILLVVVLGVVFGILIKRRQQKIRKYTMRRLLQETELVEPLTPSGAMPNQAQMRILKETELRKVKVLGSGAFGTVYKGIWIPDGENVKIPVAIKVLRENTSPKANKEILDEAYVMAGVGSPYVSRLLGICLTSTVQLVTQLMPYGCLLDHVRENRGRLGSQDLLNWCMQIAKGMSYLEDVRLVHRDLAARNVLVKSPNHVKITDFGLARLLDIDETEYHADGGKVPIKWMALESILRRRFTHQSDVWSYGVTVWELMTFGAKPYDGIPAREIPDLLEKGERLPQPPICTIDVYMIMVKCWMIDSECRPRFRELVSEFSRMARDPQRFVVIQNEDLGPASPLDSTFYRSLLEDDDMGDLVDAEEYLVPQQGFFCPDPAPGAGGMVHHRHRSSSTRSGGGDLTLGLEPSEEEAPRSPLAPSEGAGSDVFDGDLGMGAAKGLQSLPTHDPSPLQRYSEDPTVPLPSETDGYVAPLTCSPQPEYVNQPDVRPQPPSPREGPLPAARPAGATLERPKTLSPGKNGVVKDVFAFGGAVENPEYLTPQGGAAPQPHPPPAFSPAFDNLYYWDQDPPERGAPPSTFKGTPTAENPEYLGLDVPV
Method in brief: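 BT474 cells seeded and grown 24 h, then exposed to compound for 2 h at 37 °C and lysed. Lysates assayed for phospho-HER2 by sandwich ELISA with TMB detection, absorbance read at 450 and 570 nm; IC50 values derived.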

BCRP = BCRP (Homo sapiens (Human), UniProt Q9UNQ0); test: Caco-2 BCRP assessment; format: in vitro ADME; conditions: for BCRP ER: Caco-2 cells, 1 μM, efflux ratio -/+ novobiocin 30 μM, >2 = BCRP substrate; for BCRP substrate status: conclusion from Table 3
Chain of BCRP (Q9UNQ0 whole entry): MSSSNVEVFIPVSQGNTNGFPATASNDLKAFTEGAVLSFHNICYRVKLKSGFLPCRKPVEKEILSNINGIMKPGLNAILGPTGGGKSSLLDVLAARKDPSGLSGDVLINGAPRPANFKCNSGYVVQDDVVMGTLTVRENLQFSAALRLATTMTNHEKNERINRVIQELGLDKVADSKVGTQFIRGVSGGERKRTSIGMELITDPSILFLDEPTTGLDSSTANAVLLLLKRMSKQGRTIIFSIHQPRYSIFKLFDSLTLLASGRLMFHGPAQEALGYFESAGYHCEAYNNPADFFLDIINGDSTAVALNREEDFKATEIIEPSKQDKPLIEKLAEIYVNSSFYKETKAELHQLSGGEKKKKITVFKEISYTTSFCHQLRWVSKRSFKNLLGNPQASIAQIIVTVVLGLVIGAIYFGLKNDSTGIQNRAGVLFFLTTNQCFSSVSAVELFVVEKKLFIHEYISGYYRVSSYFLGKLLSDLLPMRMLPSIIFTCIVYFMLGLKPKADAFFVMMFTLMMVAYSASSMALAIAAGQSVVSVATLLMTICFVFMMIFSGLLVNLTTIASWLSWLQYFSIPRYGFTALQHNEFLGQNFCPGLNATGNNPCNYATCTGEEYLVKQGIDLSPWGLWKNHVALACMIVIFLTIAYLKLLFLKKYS
Protocol: Assay d): Caco-2 BCRP Assessment
Caco-2 cells were used to study efflux transport mediated by BCRP. Rate of drug transport by BCRP was determined in the presence and absence of novobiocin, a strong inhibitor of BCRP, which was added to both apical and basolateral compartment sat a final concentration of 30 μM. The final concentrations of test compounds and control compound were at 1 μM. The multi-well insert plate was incubated at 37° C. for 2 hours. Efflux ratio (−inhibitor/+inhibitor)>2 was considered to be a BCRP substrate.

[1] = Mouse SOA study for brain penetration; format: in vivo; conditions: for Kp: male, balb/c, mouse, brain, po, 10 mg/kg, read-out: Mouse Kpu, u; for brain penetration in vivo: mouse SOA study, conclusion from Table 3; for Mouse Kpu, u: male balb/c mice, oral 10 mg/kg, AUC 0-7 hr brain/plasma, unbound
Protocol: Assay e) Mouse SOA Study for Brain Penetration
Six non-fasted male balb/c mice (6-8 weeks, 20-25 g) were orally administered at 10 mg/kg, using a suspension formulation of 1% methylcellulose (MC) in deionized water. Brain and blood samples were collected at 0.25, 0.5, 1, 2, 4, 7 hours after dose. Plasma was obtained by centrifuging the blood samples for 5 min at 4000 g and 4° C. Brain tissue was homogenized following addition of four times the volume of phosphate-buffered saline (pH 7.4). Quantification of the compound in plasma and brain was undertaken by LC-MS/MS. Area under the curve (AUC) was determined from 0 to 7 hours in the brain tissue and plasma.
Total brain to plasma concentration ratio Kp was determined using the equation: Brain Kp=AUC0-7 hr brain/AUC0-7 hr plasma
Unbound brain to plasma ratio was determined using the equation: Brain Kp,uu=Kp*fu,brain/fu,plasma
Unbound fraction (fu, plasma) and unbound fraction (fu, brain) were obtained from in vitro equilibrium dialysis by using plasma and brain homogenate, respectively.

wt-EGFR = wt-EGFR (Homo sapiens (Human), UniProt P00533); test: NCI H838 cellular assay (wt-EGFR inhibition), phospho-EGFR ELISA; format: cell-based
Chain of wt-EGFR (P00533 25-1210): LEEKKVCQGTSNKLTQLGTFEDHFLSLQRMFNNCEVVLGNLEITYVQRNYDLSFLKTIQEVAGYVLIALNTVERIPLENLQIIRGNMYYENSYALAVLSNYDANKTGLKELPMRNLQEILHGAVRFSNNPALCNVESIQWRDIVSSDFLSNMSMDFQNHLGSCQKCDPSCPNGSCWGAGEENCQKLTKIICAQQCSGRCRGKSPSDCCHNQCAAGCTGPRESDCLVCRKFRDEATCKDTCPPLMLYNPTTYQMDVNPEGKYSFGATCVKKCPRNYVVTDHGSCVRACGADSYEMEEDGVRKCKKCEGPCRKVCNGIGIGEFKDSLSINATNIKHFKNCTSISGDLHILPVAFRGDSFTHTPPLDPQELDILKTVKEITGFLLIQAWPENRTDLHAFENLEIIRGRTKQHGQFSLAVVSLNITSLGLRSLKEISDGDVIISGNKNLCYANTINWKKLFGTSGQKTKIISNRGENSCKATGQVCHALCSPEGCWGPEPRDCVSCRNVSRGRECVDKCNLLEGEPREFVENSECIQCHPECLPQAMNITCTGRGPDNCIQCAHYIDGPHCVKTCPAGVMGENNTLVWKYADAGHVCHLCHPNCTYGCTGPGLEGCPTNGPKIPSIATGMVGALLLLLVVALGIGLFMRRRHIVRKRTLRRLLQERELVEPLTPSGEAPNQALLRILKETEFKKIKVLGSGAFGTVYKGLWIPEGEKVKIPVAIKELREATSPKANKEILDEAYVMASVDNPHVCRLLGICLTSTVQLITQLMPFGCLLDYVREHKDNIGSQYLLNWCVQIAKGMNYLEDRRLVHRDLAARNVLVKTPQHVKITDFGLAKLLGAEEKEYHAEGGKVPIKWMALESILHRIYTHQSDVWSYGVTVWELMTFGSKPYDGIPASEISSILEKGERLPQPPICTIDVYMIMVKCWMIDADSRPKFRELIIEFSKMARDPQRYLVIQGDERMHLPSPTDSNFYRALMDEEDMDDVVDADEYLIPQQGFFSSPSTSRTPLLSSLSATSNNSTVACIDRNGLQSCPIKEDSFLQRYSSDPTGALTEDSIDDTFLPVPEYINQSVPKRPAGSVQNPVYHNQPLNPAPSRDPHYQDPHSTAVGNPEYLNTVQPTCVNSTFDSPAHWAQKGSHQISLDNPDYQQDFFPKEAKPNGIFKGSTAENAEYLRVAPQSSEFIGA
Protocol: Assay b) NCI H838 Cellular Assay (Wt-EGFR Inhibition) Inhibition of phosphor wt-EGFR was determined by enzyme-linked immunosorbent assay (ELISA) in NCI H838 cells (ATCC, catalog number CRL-5844). Human Phospho-EGFR DuoSet IC ELISA kit was purchased from R&D systems (catalog number DYC1095). Day 1: When the cells reach 70-90% confluence, cells were trypsinized and re-suspended. 5000 cells per well were seeded to a 384-well plate. The plate was incubated at 37° C. with 5% CO2 for 24 hours. Day 2: Cell culture medium was replaced with 40 μL FBS-Free RPMI1640. After 2 hours of starvation, the 384-well plate was dosed with 40 nL of compounds by Echo from source plate and the 384-well plate was incubated at 37° C. with 5% CO2 for 2 hours. After 2 hours of incubation with compounds, EGF (final concentration at 100 ng/ml) was added to the plate which was incubated at 37° C. with 5% CO2 for 5-10 minutes. Medium was discarded from the plate and 30 μl/well lysis buffer was added to the plate which was incubated at 4° C. for 10 minutes. The cell lysates can be stored at −80° C. in cell plates but must be thawed at room temperature for at least 30 minutes prior to use and continuing the assay. ELISA plate was coated by diluting capture antibody to 4 μg/ml with PBS, and 25 μl/well was dispensed to 384 well UltraCruz® ELISA Plate, which was incubated at 4° C. overnight. Day 3: After the plates were washed three times with 100 μl/well of wash buffer, the plates were blocked by adding 75 μl of Block Buffer to each well and incubated at room temperature for 3 hours. After the plates were washed three times with 100 μl/well of wash buffer, 20 μl cell lysate was transferred to the blocked ELISA plate which was incubated for 2 hours at room temperature. After the plates were washed three times with 100 μl/well of wash buffer, 25 μl/well detection antibody (dilute 1 in 900 in assay buffer) was added the plate which was incubated for 2 hours, protected from light. After washed three times, 25 μl/well TMB substrate was added to the ELISA plate which was incubated for about 10-15 min, protected from light before addition of 25 μl/well stop solution. Absorbance was read at 450 nm and 570 nm within 30 minutes.

[2] = literature values; cited from earlier work
Pgp = conditions: literature statement; cited from earlier work

[2H]C([2H])([2H])Oc1ccc2ncnc(Nc3ccc(Oc4cc5ncnn5cn4)c(C)c3)c2c1O[C@@H]1CCN(C)CC1(F)F [Example 36, (R)—N-(4-([1,2,4]-triazolo[1,5-c]pyrimidin-7-yloxy)-3-methylphenyl)-5-((3,3-difluoro-1-methylpiperidin-4-yl)oxy)-6-(methoxy-d3)quinazolin-4-amine]
Pgp substrate status (P-glycoprotein (Pgp)): not Pgp or BCRP substrates | efflux ratio at 2 h, 1 μM (P-glycoprotein (Pgp)): 0.81 | IC50 (hERG channel): > 10 µM | hERG liability (hERG channel): do not show hERG liability | IC50 (HER2): 0.011 µM | BCRP ER (BCRP): 1.8 | BCRP substrate status (BCRP): not Pgp or BCRP substrates | Kp [1]: 0.19 | brain penetration in vivo [1]: brain penetrable | IC50 (wt-EGFR): 0.44 µM

Cc1cc(Nc2ncnc3ccc(NC4=NC(C)(C)CO4)cc23)ccc1Oc1ccn2ncnc2c1 [Reference compound 3, N4-(4-([1,2,4]triazolo[1,5-a]pyridin-7-yloxy)-3-methylphenyl)-N6-(4,4-dimethyl-4,5-dihydrooxazol-2-yl)quinazoline-4,6-diamine, reference compound]
Pgp substrate status (P-glycoprotein (Pgp)): strong Pgp substrates | efflux ratio at 2 h, 1 μM (P-glycoprotein (Pgp)): 23.8 | IC50 (hERG channel): > 10 µM | BCRP ER (BCRP): 2.1 | Mouse Kpu, u [1]: too low to calculate | brain penetration in vivo [1]: not brain penetrable in vivo

CN1CCC(Oc2cccc3ncnc(Nc4ccc(NCc5ccccn5)c(Cl)c4)c23)CC1 [Reference compound 1, 2-chloro-N^4-(5-((1-methylpiperidin-4-yl)oxy)quinazolin-4-yl)-N^1-(pyridin-2-ylmethyl)benzene-1,4-diamine, reference compound]
efflux ratio at 2 h, 1 μM (P-glycoprotein (Pgp)): 0.57 | IC50 (hERG channel): < 2 µM | hERG liability (hERG channel): strong hERG inhibitor | BCRP ER (BCRP): 1.1

CS(=O)(=O)CCNCc1ccc(-c2ccc3ncnc(Nc4ccc(OCc5cccc(F)c5)c(Cl)c4)c3c2)o1 [lapatinib]
brain to blood ratio (Kp) [2]: 0.04 | Pgp substrate status (Pgp): strong Pgp substrates

CN(C)C/C=C/C(=O)Nc1cc2c(Nc3ccc(F)c(Cl)c3)ncnc2cc1O[C@H]1CCOC1 [afatinib]
brain to blood ratio (Kp) [2]: < 0.08 | Pgp substrate status (Pgp): strong Pgp substrates

COc1ccc2ncnc(Nc3ccc(Oc4cc5ncnn5cn4)c(Cl)c3)c2c1O[C@@H]1CCN(C)CC1(F)F [Example 33, (R)—N-(4-([1,2,4]triazolo[1,5-c]pyrimidin-7-yloxy)-3-chlorophenyl)-5-((3,3-difluoro-1-methylpiperidin-4-yl)oxy)-6-methoxyquinazolin-4-amine]
Pgp substrate status (P-glycoprotein (Pgp)): not Pgp or BCRP substrates | efflux ratio at 2 h, 1 μM (P-glycoprotein (Pgp)): 0.6 | IC50 (hERG channel): 13.3 µM | hERG liability (hERG channel): do not show hERG liability | IC50 (HER2): 0.008 µM | BCRP ER (BCRP): 1.3 | BCRP substrate status (BCRP): not Pgp or BCRP substrates | Kp [1]: 0.24 | brain penetration in vivo [1]: brain penetrable | IC50 (wt-EGFR; inhibition of phosphor wt-EGFR, NCI H838 cells, EGF 100 ng/ml): 0.4 µM

CCOc1cc2ncc(C#N)c(Nc3ccc(OCc4ccccn4)c(Cl)c3)c2cc1NC(=O)/C=C/CN(C)C [neratinib]
brain to blood ratio (Kp) [2]: 0.079 | Pgp substrate status (Pgp): strong Pgp substrates

CCOc1cc2ncc(C#N)c(Nc3ccc(OCc4ccccn4)c(Cl)c3)c2cc1NC(=O)/C=C/CN(C)C [Reference compound 2, Neratinib, reference compound]
Pgp substrate status (P-glycoprotein (Pgp)): strong Pgp substrates | efflux ratio at 2 h, 1 μM (P-glycoprotein (Pgp)): > 18.6 | IC50 (hERG channel): > 10 µM | BCRP ER (BCRP): 1.4 | Mouse Kpu, u [1]: too low to calculate | brain penetration in vivo [1]: not brain penetrable in vivo

Cc1cc(Nc2ncnc3ccc(NC4=NC(C)(C)CO4)cc23)ccc1Oc1ccn2ncnc2c1 [Tucatinib]
brain to blood ratio (Kp) [2]: 0.02-0.05 | Pgp substrate status (Pgp): strong Pgp substrate

COc1ccc2ncnc(Nc3ccc(Oc4cc5ncnn5cn4)c(C)c3)c2c1O[C@@H]1CCN(C)CC1(F)F [Example 31, (R)—N-(4-([1,2,4]triazolo[1,5-c]pyrimidin-7-yloxy)-3-methylphenyl)-5-((3,3-difluoro-1-methylpiperidin-4-yl)oxy)-6-methoxyquinazolin-4-amine]
Pgp substrate status (P-glycoprotein (Pgp)): not Pgp or BCRP substrates | efflux ratio at 2 h, 1 μM (P-glycoprotein (Pgp)): 1.3 | IC50 (hERG channel): 18 µM | hERG liability (hERG channel): do not show hERG liability | IC50 (HER2): 0.0095 µM | BCRP ER (BCRP): 0.68 | BCRP substrate status (BCRP): not Pgp or BCRP substrates | Kp [1]: 0.26 | brain penetration in vivo [1]: brain penetrable | IC50 (wt-EGFR): 12 µM
